Test [1] concerns DC-3F hamster lung fibroblasts. In words: Tumor cell growth inhibition in vitro. The class given is cell-based. The following applies: read-out: IC50. The method, then:
(§1) The fresh medium containing each drug was replenished every 7-14 days. […] In each case ,the drug-exposed cells were resuspended in fresh media for a minimum of 4 days before the experiments for the cell-growth inhibition was carried out.
(§2) The cells were cultured at an initial density of 2-5×10^4 cells per ml. They were maintained in a 5% CO2-humidified atmosphere at 37° C. in RPMI mediun 1640 (GIBCO/BRL) containing penicillin (100 units/ml), streptomycin (100 μg/ml) (GIBCO/BRL), and 5% heat-inactivated fetal bovine serum. For solid tumor cells growing in a monolayer (such as MCF-7/Adr), cytotoxicitiy of the drug was determined in 96-well microtiter plates by using the sulforhodamine B method as described by Skehan et al (23) for measuring the cellular protein content. For cells that were grown in suspension (such as CCRF-CEM and its sublines), cytotoxicitiy was measured by using the 2,-3-bis(2-methoxy-4-nitro-5-sulfophenyl)-5carboxanilide)-2H terazodium hydroxide (XTT)-microculture tetrazonium method (24) in duplicate in 96-well microtiter plates. For both methods, the absorbance of each well was measured with a microplate reader (EL-340, Bio-Tek, Burlington, Vt.). Each run entailed six or seven concentrations of the tested drugs. Dose-effect relationship data were analyzed with the median-effect plot (25) by using a previously described computer program (26).

In test [2] the test system is MCF-7/Adr. In words: Tumor cell growth inhibition in vitro. The class given is cell-based, human. The following applies: MCF-7/Adr. The procedure:
as §2, with “They were maintained in a 5% CO2-humidified atmosphere at 37° C. in RPMI mediun 1640 (GIBCO/BRL) containing penicillin (100 units/ml), streptomycin (100 μg/ml) (GIBCO/BRL), and 5% heat-inactivated fetal bovine serum.” left out

Test [3] concerns MCF-7/Adr mammary xenograft. Put plainly: Human tumor xenograft in nude mice. It counts as in vivo.
The test system of test [4] is K562 chronic myelocytic leukemia xenograft. Put plainly: Human tumor xenograft in nude mice. It counts as in vivo. The procedure: FIG. 34 depicts tumor size in nude mice bearing human leukemia […] tumor following 6 mg/kg C-15-Aza-EpoB, Q2D×6 and 30 mg/kg dEpoF, Q2ED×6 (i.v. infusion […].). K562 tumor cells (1×10^7 in 0.2 mL) were inoculated to nude mice on day 0. Mice were treated with 6 mg/kg aza-EpoB, 6 h-i.v. infusion on days 20, 22, 24, 26, 28 and 30 (Δ, n=3). The same group of mice were then treated with 30 mg/kg dEpoF, 6 h-i.v. infusion on days 42, 44, 46, 48, 52, and 54 (Δ, n=3). […] The control mice (∘, n=3) received vehicle only.
K562 tumor cells (1×10^7, in 0.2 ml/mouse) were implanted s.c. on day 0. […] The control mice (∘, n=4) received vehicle, Cremophor-ethanol (1:1), only. The vertical bars indicate mean tumor size in mm^3±S.E.
(§3) Depending on the tumor type, treatment started on day 10 to day 21 when subcutaneous tumor size reached 35-200 mm^3, except otherwise indicated. Tumor size and body-weight were recorded every other day (Q2D) and, for humane reasons, the animals were sacrificed when tumor size reached ≧10% of body-weight. Each group, including untreated control, consisted of 3-5 animals unless otherwise indicated.
(§4) Athymic nude mice bearing the nu/nu gene were used for all human tumor xenografts. Outbred, Swiss-background mice were obtained from Charles River Laboratories. Male mice 8 weeks or older weighing 22 g and up were used for most experiments. The drug was administered via the tail vein for 6 hr.-i.v. infusion. Each individual mouse was confined in a perforated Falcon polypropylene tube restrainer for drug administration. Tumor volume was assessed by measuring length×width×height (or width) using a caliper. The programmable Harvard PHD2000 syringe pump (Harvard Apparatus) with multi-track was used for i.v. infusion. […] All animal studies were conducted in accordance with the guidelines of the National Institutes of Health “Guide for the Care and Use of Animals” and the protocol approved by the Memorial Sloan-Kettering Cancer Center's Institutional Animal Care and Use Committee. In keeping with the policy of this committee for the humane treatment of tumor-bearing animals, mice were euthanized when tumors reached ≧10% of their total body weight.
(§5) Human tumor cells (5×10^6) or tumor tissue (30-50 mg) were implanted s.c. flank in nu/nu mice (Charles River Laboratories, Wilmington, Mass.). When tumor grew to a specified size, treatment was started by every-other day×5 with 6 hr i.v.-infusion, unless otherwise indicated. Tumor volume was measured with calipers in three dimensions (length×width×height or width). Body-weight changes and lethality were monitored every other day.
A general note: Xenograft models place foreign cells or tissue in a host animal.

In test [5] the test system is PC-3 prostate adenocarcinoma xenograft. In words: Human tumor xenograft in nude mice. The class given is in vivo. The method, then: as §3, §4, §5
The subject of test [6] is MCF-7 human mammary adenocarcinoma. Put plainly: Tumor cell growth inhibition in vitro. It counts as cell-based. To be noted: read-out: IC50. The procedure:
as §2, with “They were maintained in a 5% CO2-humidified atmosphere at 37° C. in RPMI mediun 1640 (GIBCO/BRL) containing penicillin (100 units/ml), streptomycin (100 μg/ml) (GIBCO/BRL), and 5% heat-inactivated fetal bovine serum.” left out

The subject of test [7] is tubulin. In words: Tubulin-binding / tubulin polymerization assay. It counts as biochemical.
Test [8] concerns CCRF-CEM human T-cell acute lymphoblastic leukemia cells. In words: Tumor cell growth inhibition in vitro (XTT, 72 h). The class given is cell-based. To be noted: for IC50: CCRF-CEM, 72 h incubation. The method, then: as §1, §2
On the technique in general: Tetrazolium dyes change colour on reduction, which living cells bring about.

Test [9] concerns K562 human chronic myeloblastic leukemia. Put plainly: Tumor cell growth inhibition in vitro. To be noted: Homo sapiens, K562, K562. The class given is cell-based. The procedure: as §2, with “They were maintained in a 5% CO2-humidified atmosphere at 37° C. in RPMI mediun 1640 (GIBCO/BRL) containing penicillin (100 units/ml), streptomycin (100 μg/ml) (GIBCO/BRL), and 5% heat-inactivated fetal bovine serum.” left out

Test [10] relates to CCRF-CEM/Taxol (paclitaxel-resistant subline). In words: Tumor cell growth inhibition in vitro (XTT, 72 h). It counts as cell-based, human. The procedure:
as §1, §2

Test [11] deals with CCRF-CEM/VBL100 (vinblastine-resistant subline). In words: Tumor cell growth inhibition in vitro (XTT, 72 h). The class given is cell-based, human. The procedure: as §1, §2
In test [12] the test system is CCRF-CEM/VM2. In words: Cell growth inhibition, resistant subline. The class given is cell-based, human. The procedure: as §1, §2
Test [13] has as its system A549 lung carcinoma xenograft. Put plainly: Human tumor xenograft in nude mice. The class given is in vivo. The following applies: A549, i.v. infusion. The method, then:
as §3, §4, §5

In test [14] the test system is CCRF-CEM/VM1 (teniposide-resistant subline). Put plainly: Tumor cell growth inhibition in vitro (XTT, 72 h). To be noted: Homo sapiens, CCRF-CEM, 72 h. The class given is cell-based, human. The procedure: as §1, §2
Test [15] deals with HCT-116 colon carcinoma xenograft. In words: Human tumor xenograft in nude mice. The class given is in vivo. To be noted: HCT-116, i.v. infusion.
Source text: Therapeutic efficacy of cancer chemotherapeutic agents varies with various factors including the tumor models used and the dosage of drug and schedules and routes of administration. […] In the present studies, we intended to compare the therapeutic effects of drugs near their maximal tolerated doses by measuring the extent of body-weight decreases and/or lethality.
as §3, §4, §5

The values that follow come from patent US6867305B2, “Synthesis of epothilones, intermediates thereto and analogues thereof” (Sloan-Kettering Institute for Cancer Research, priority 1996, dated 2005).

Each structure is given as a SMILES string. Several values for one entry are separate records, joined by “and”; a condition that tells them apart may be missing. Identical values can stand only once. Like-named read-outs stand apart in the source and are kept apart here. Starred links: 1 amine or outer side, 2 acyl side, 3 side chain; linkers in the order of their positions; H or OH if unused. Positions of bridges follow the written chain, without caps; N, C: chain ends. Non-standard residues stand in square brackets, D forms with d. Residues, ends and D or L forms follow the SMILES beside them. Chains are numbered I, II in the order given. Actinocin(9to1) = Cc1c2oc3c(C)ccc(C(=O)[*:1])c3nc-2c(C(=O)[*:2])c(N)c1=O; NMeV = CN[C@H](C(=O)O)C(C)C; Sar = CNCC(=O)O

A word on the IC50: it is the concentration needed to halve the response being measured. As for `Cc1c2oc3c(C)ccc(C(=O)N[C@@H]4C(=O)N[C@H](C(C)C)C(=O)N5CCC[C@H]5C(=O)N(C)CC(=O)N(C)[C@@H](C(C)C)C(=O)O[C@@H]4C)c3nc-2c(C(=O)N[C@@H]2C(=O)N[C@H](C(C)C)C(=O)N3CCC[C@H]3C(=O)N(C)CC(=O)N(C)[C@@H](C(C)C)C(=O)O[C@@H]2C)c(N)c1=O` [Actinomycin D, actinomycin D, reference compound] (I: T[dV]P[Sar][NMeV] / II: T[dV]P[Sar][NMeV]; ester I:1-I:C, II:1-II:C; linker I:N-II:N via Actinocin(9to1)), the half-maximal inhibitory concentration (IC50) in [1] is 0.25 nM and 0.31 nM.

Regarding `COc1cccc2c1C(=O)c1c(O)c3c(c(O)c1C2=O)C[C@@](O)(C(=O)CO)C[C@@H]3O[C@H]1C[C@H](N)[C@H](O)[C@H](C)O1` [Adriamycin, doxorubicin, reference compound], the IC50 is 280 nM in [2] (Homo sapiens, NCI/ADR-RES); 316 nM in test [2]; 81 nM in test [6] (Homo sapiens, MCF7, MCF-7); 90 nM in test [6] (MCF-7). Moreover, the “Therapeutic Effect Rank Order” value in test [3] (i.p., ref 19 (Table 5)) is listed as “dEpoB>Camptothecin>Adriamycin>Taxol”; in [3] (i.v. infusion), “dEpoB>>VP-16, Taxol>VBL, Adriamycin”; in test [4] (K562, i.v. infusion, FIG. 3 & 4), “dEpoB>>>VBL> Taxol> Adriamycin”; in [5] (PC-3, i.v. or i/p.), “Taxol>dEpoB>>Adriamycin”. In addition, the therapeutic effect result in test [4] (K562, dEpoB 30 mg/kg, Taxol 20 mg/kg 6 hr i.v. infusion, Adriamycin 3 mg/kg, vinblastine 2.5 mg/kg i.v., every other day from day 20 (FIG. 36)) is given as “only partial curative or remissive effects”.

Turning to `C/C1=C/CC(/C(C)=C/c2csc(COC(=O)c3c(F)c(F)c(N=[N+]=[N-])c(F)c3F)n2)OC(=O)CC(O)C(C)(C)C(=O)C(C)C(O)[C@@H](C)CCC1` (some centres unmarked) [compound 66], the “induction of tubulin polymerization” value in test [7] is “did not induce tubulin polymerization”.

As for `C/C1=C/CC(/C(C)=C/c2csc(C)n2)NC(=O)CC(O)C(C)(C)C(=O)[C@H](C)[C@@H](O)[C@@H](C)CCC1` (stereo partly drawn) [aza-dEpoB, 12,13,15-desoxy-15(S)-aza-epothilone B], the IC50 amounted to 27.8 nM in [8] (Homo sapiens, 72 h); 2.4 nM in [9]; 791 nM in test [10] (Homo sapiens, CCRF-CEM, 72 h); 997 nM in test [11] (Homo sapiens, CCRF-CEM, 72 h). In addition, the “potency relative to aza-EpoB (fold less potent)” value in test [8] (in vitro cell lines) is recorded as “about 10 fold”. In addition, the results for the “cross-resistance (fold of resistance vs parent cell line)” value in [10] (CCRF-CEM/Taxol vs CCRF-CEM) and in [11] (CCRF-CEM/VBL100 vs CCRF-CEM) were 38.4 x and 35.8 x, respectively.

With `COc1cc([C@@H]2c3cc4c(cc3[C@@H](O[C@@H]3O[C@@H]5CO[C@@H](C)O[C@H]5[C@H](O)[C@H]3O)[C@H]3COC(=O)[C@H]23)OCO4)cc(OC)c1O` [Etoposide, etoposide, reference compound], the IC50 in test [8] came to 29 nM; in test [12] (Homo sapiens, CCRF-CEM/VM2, exposed to teniposide 12 months), 19800 nM; in [14] it was 3440 nM. Moreover, the “fold resistance vs original CCRF-CEM” value in [12] (CCRF-CEM/VM2) is on record as 69 fold. Moreover, the “Therapeutic Effect Rank Order” value in test [3] (i.v. infusion) is listed as “dEpoB>>VP-16, Taxol>VBL, Adriamycin”; in test [13], “Taxol, dEpoB, VBL>VP-16”; in [5] (PC-3, i.v. infusion) it was “Taxol, VBL>dEpoB>>VP-16”.

On to `CCc1c2c(nc3ccc(OC(=O)N4CCC(N5CCCCC5)CC4)cc13)-c1cc3c(c(=O)n1C2)COC(=O)[C@]3(O)CC` [CPT-11, Irinotecan, reference compound], for which the “Therapeutic Effect Rank Order” value in [15] was “Taxol, CPT-11≈dEpoB, dEpoF”.
